The values that follow come from patent US20220354807A1, “USE OF VALERIC ACID DERIVATIVE IN TREATMENT OF DOWN'S SYNDROME” (XIAMEN UNIVERSITY, priority 2019, published 2022).

The nature of data set [1]: Body weight after 21 days of administration. The data set is classed as in vivo. As to conditions: WT and Ts65Dn mice, 50 mg/(kg body weight/day) i.p. On the procedure: All of the used mice were 3-month-old male mice administered continuously for 21 days, and then weighed.
The mice were administered continuously for 21 days and then weighed.

Another data set has as its system Alzheimer's disease mice. As to conditions: by inhibiting the production of β-amyloid protein in the brain; cited from earlier work.
The subject of data set [2] is Down's model mice Dp16. In words: Iba1/CD68 immunofluorescence of hippocampus (microglial phagocytic function), Dp16. The class given is in vivo. As to conditions: 30 mg/(kg body weight/day) intragastric, 21 days. From the text:
(A) A representative map of immunofluorescence labeled microglia marker Iba1 and lysosomal phagocytosis marker CD68 in the region of mice hippocampus, and the scale is 50 m. (B) The statistical results of the proportion of Iba1-positive and CD68-positive cells in the total Iba1-positive cells in the mice hippocampus. Data represents the mean±standard error (SEM) and is statistically analyzed using One-way ANOVA, with 8 mice in each group. The ns represents no significant difference, i.e., p>0.05, *** represents p<0.001, **** represents p<0.0001.
The microglia marker Iba1 and lysosomal phagocytosis markers CD68 were respectively labeled by immunofluorescence staining, and then the images were collected by laser confocal fluorescence microscopy.

The subject of data set [3] is Down's model mice Ts65Dn. In words: Synapse number by transmission electron microscopy. The class given is in vivo. As to conditions: 50 mg/(kg body weight/day) i.p., 21 days. From the text: (A) A representative image of a transmission electron micrograph. Arrows indicate synaptic structures, and the scale is 1 m. (B) Statistics result of the number of synapses. (C) Statistics result of the number of presynaptic vesicles. (D) statistical result of the length of postsynaptic density (PSD). (E) Statistical results of the area of postsynaptic density (PSD). Data represents the mean±standard error (SEM) and is statistically analyzed using One-way ANOVA, with 4 mice in each group, and 38-42 fields of view are statistically analyzed respectively. The ns represents no significant difference, i.e., p>0.05, * represents p<0.05.
[…] The pieces were fixed with pre-cooled, fresh 2.5% glutaraldehyde fixative at 4° C. for more than 4 hours. At the end of fixation, the pieces were washed with PBS for 15 min for three times, then dehydrated, sectioned and prepared, and finally the images are collected by transmission electron microscopy.

A short description of another data set: Open-field test. The class given is in vivo, mice. As to conditions: 50 mg/(kg body weight/day) i.p., 21 days, open field 10 minutes. How it is done:
After 21 days of continuous administration, 3-month-old male mice were subjected to the behavioral open-field test. (A) Average movement speed of mice in the open field. (B) Total movement distance of mice in the open field. (C) Total time for the mice moving in the center of the open field.
After continuous administration for 21 days, the animal behavior test was performed, in which the open-field test is a behavioral paradigm for evaluating the exercise ability and anxiety of experimental animals. In the open-field test, mice were placed in the center of the open field box (40 cm (L)×40 cm (W)×40 cm (H)), and Smart Video Tracking Software (Panlab, Harvard Apparatus) was used for data acquisition and analysis. Mice were allowed to explore freely in the open field for 10 minutes, and the Mean speed, Total distance and Time in center of mice were recorded.

Data set [4] has as its system primary microglia of Dp16 mice. In words: Phagocytosis of myelin debris by primary microglia. The class given is cell-based. As to conditions: 0.6 mM, myelin debris added at 45 hours, staining at 48 hours. From the text:
(A) Representative images of immunofluorescence labeled microglia marker Iba1, nuclear dye DAPI and myelin sheath debris (pHrodo is pre-labeled on myelin sheath), and the scale is 20 m. (B) Statistics of fluorescence intensity of myelin sheath debris in each Iba1-positive cell. Data represents the mean±standard error (SEM) and is statistically analyzed using One-way ANOVA. The ns represents no significant difference, i.e., p>0.05, ** represents p<0.01, *** represents p<0.001, **** represents p<0.0001.
(§1) Newborn wild-type (WT) mice and Dp16 Down's model mice were placed on ice for 5 min, immersed in pre-cooled 75% alcohol for 10 s, decapitated and stripped of the skull, and the whole brain was removed and placed in pre-cooled HBSS. Under a stereoscope, the vascular membrane of brain tissue was stripped and cut into pieces with tweezers, repeatedly blown and beaten evenly with a 5 ml pipette tip, resuspended in precooled HBSS, and screened with a 100-mesh cell sieve to remove cell debris. […] The cells were resuspended and counted. […] Myelin debris (1.2 μg/L) were added at 45 hours, and immunofluorescence staining was performed at 48 hours to label microglia marker Iba1, nuclear dye DAPI and myelin debris (pHrodo was labeled on the myelin sheath in advance), respectively, and then images were collected by laser confocal fluorescence microscopy.

For data set [5] the following is noted: 50 mg/(kg body weight/day) i.p., 21 days, plasma.
For data set [6], the system named is Down's model mice Dp16. The data set can be described thus: Morris water maze test, Dp16. The class given is in vivo. As to conditions: 30 mg/(kg body weight/day) intragastric, 21 days. From the text:
(§2) After 21 days of continuous administration, 3-month-old male mice were subjected to the Morris water maze test. (A) The latency for the mice to reach the platform during the 6-day water maze hidden platform training. (B) The average speed of swimming for the mice in the water maze of the platform test on day 7. (C) The latency for the mice to reach the area where the platform is located for the first time in the platform test on day 7. (D) The number of times for which the mice shuttled in the area where the platform is located in the platform test on day 7. (E) The swimming trajectory for the mice in the platform test on day 7. […] The ns represents no significant difference, i.e., p>0.05, * represents p<0.05, ** represents p<0.01, *** represents p<0.001.
After continuous administration for 21 days, learning and memory related animal behavior test Morris water maze test was performed. Smart Video Tracking Software (Panlab, Harvard Apparatus) was used for data acquisition and analysis. The Morris water maze is a circular water tank with a diameter of 90 cm, a height of 35 cm, and a water depth of 30 cm. The water temperature was maintained at 22° C. Different markers were placed in the visual field of mice (pool wall), and four water entry points (E, S, W, N) were marked on the pool wall so that the maze was divided into four quadrants. A platform with a diameter of 6 cm was installed in the ES quadrant, so that the water surface was 1 cm higher than the platform. Mice were trained twice a day and put into the water from E, S, W and N entry points facing the wall of the pool, respectively. The movement trajectory of the mice was captured by a camera, and the time from entering the water to climbing up the platform was recorded, that is, Escape latency. The system set a test time of 60 seconds, and the system automatically shut down after the mice climbed on the platform and stay for 10 seconds. […] The number of times of crossing in the original platform area (Target crossing) and the Latency of 1st entrance to target were recorded. […]

Data set [7] deals with Down's model mice Ts65Dn. In words: Iba1 immunofluorescence of hippocampus (microgliosis), Ts65Dn. The class given is in vivo. As to conditions: 50 mg/(kg body weight/day) i.p., 21 days. From the text:
(A) A representative map of immunofluorescence labeled microglia marker Iba1 in the DG region of mice hippocampus, and the scale is 75 m. (B) Statistical results of Iba1 positive cells in mice hippocampus. Data represents the mean±standard error (SEM) and is statistically analyzed using One-way ANOVA, with 4 mice in each group. ** represents p<0.01 and *** represents p<0.001.
(§3) The microglia marker Iba1 and nuclear dye DAPI were respectively labeled by immunofluorescence staining, and then the images were collected by laser confocal fluorescence microscopy.

The subject of data set [8] is Down's model mice Dp16. In words: Iba1 immunofluorescence of hippocampus (microgliosis), Dp16. The class given is in vivo. As to conditions: 30 mg/(kg body weight/day) intragastric, 21 days.
Excerpt: (A) A representative map of immunofluorescence labeled microglia marker Iba1 in the DG region of mice hippocampus, and the scale is 100 m. (B) Statistical results of Iba1 positive cells in mice hippocampus. Data represents the mean±standard error (SEM) and is statistically analyzed using One-way ANOVA, with 8 mice in each group. **** represents p<0.0001.
as §3

For data set [9] the following is noted: cited from earlier work.
In data set [10] the test system is Down's model mice Ts65Dn. In words: Morris water maze test, Ts65Dn. The class given is in vivo. As to conditions: 50 mg/(kg body weight/day) i.p., 21 days.
Excerpt: as §2, with “p>0.05,” for “p>0.05, * represents p<0.05,”, “p<0.001, **** represents p<0.0001.” for “p<0.001.”
After continuous administration for 21 days, learning and memory related animal behavior test Morris water maze test was performed. Smart Video Tracking Software (Panlab, Harvard Apparatus) was used for data acquisition and analysis. The Morris water maze is a circular water tank with a diameter of 90 cm, a height of 35 cm, and a water depth of 30 cm. The water temperature was maintained at 22° C. Different markers were placed in the visual field of mice (pool wall), and four water entry points (E, S, W, N) were marked on the pool wall so that the maze was divided into four quadrants. A platform with a diameter of 6 cm was installed in the ES quadrant, so that the water surface was 1 cm higher than the platform. Mice were trained twice a day and put into the water from E, S, W and N entry points facing the wall of the pool, respectively. The movement trajectory of the mice was captured by a camera, and the time from entering the water to climbing up the platform was recorded, that is, Escape latency. The system set a test time of 60 seconds, and the system automatically shut down after the mice climbed on the platform and stay for 10 seconds. […] The positioning navigation experiment last for 6 days, and on day 7, the platform was removed. Mice were placed on the opposite side of the platform to the wall of the pool, and the space exploration experiment was carried out. The number of times of crossing in the original platform area (Target crossing) and the Latency of 1st entrance to target were recorded.

The test system of data set [11] is Down's model mice Ts65Dn. The data set can be described thus: LTP recording in brain slices (Schaffer collateral pathway CA3 to CA1). The data set is classed as in vivo. As to conditions: 50 mg/(kg body weight/day) i.p., 21 days.
Protocol: After 21 days of continuous administration, electrophysiological studies on brain slice were performed. After anesthesia, the mice were incubated in an ice-cooled artificial cerebrospinal fluid (ACSF) with oxygen. After slicing, the brain slices were incubated in ACSF saturated with oxygen at 32° C. for 1 H. The recording electrode was placed in the radiation layer of CA1 area of Schaffer collateral pathway, and the stimulating electrode was placed in CA3 area. Stimulation intensity was 30% of the maximum value of fEPSP. After the stable baseline of fEPSP was recorded for 20 mins, LTP was induced by high frequency stimulation (HFS) (2 strings of stimulation, each of which contained 100 stimulation pulses, and was separated by 30 seconds) and recorded for 60 mins.
Data set [12] concerns primary microglia of Dp16 mice. In words: Phagocytosis of fluorescent spheres by primary microglia. The class given is cell-based. As to conditions: 0.6 mM, fluorescent spheres added at 45th hour, staining at 48th hour.
Excerpt: (A) Representative images of immunofluorescence labeled microglia marker Iba1, nuclear dye DAPI and fluorescent spheres, and the scale is 10 m. (B) Statistics of fluorescence intensity of fluorescent spheres in each Iba1-positive cell. Data represents the mean±standard error (SEM) and is statistically analyzed using One-way ANOVA. The ns represents no significant difference, i.e., p>0.05, ** represents p<0.01, **** represents p<0.0001.
as §1, with “Fluorescent spheres (10000×, Fluoresbrite® microsphere)” for “Myelin debris (1.2 μg/L)”, “the 45th hour,” for “45 hours,”, “the 48th hour” for “48 hours”, “fluorescent spheres GFP,” for “myelin debris (pHrodo was labeled on the myelin sheath in advance),”

On to `CCCC(CCC)C(=O)O` [VPA, sodium valproate], for which, in data set [1], the “body weight of mice” value is recorded as “does not affect”. Further, the “cognitive function of Alzheimer's disease mice” value in the data set on Alzheimer's disease mice is on record as “reverse the cognitive function”. Further, in the data set with Down's model mice Dp16 [2], the “phagocytic function of hippocampal microglial cells (Iba1-positive and CD68-positive cells)” value was “significantly enhances”. For the same compound, the “number of synapses in the hippocampal neurons” value in the data set with Down's model mice Ts65Dn [3] was “significantly increases”. In addition, in the data set “Open-field test”, the “anxiety-related behaviors (Time in center)” value is on record as “do not show anxiety-related behaviors” and the “locomotor ability (Mean speed, Total distance)” value is given as “no significant effects”. Besides, in [4], the “phagocytic function of myelin debris by primary microglia” value is recorded as “significantly enhances”. Further, the “toxic effects on mice (blood biochemical analysis)” value in [5] is listed as “no significant toxic effects”. In the data set on Down's model mice Dp16 [6], the “Latency of 1st entrance to target, day 7” value is “reduces”; the “number of times the mouse shuttled the area where the platform was located, day 7” value is “significantly increases”; the “spatial learning and memory deficits” value is listed as “significantly reverse”. Further, in the data set with Down's model mice Ts65Dn [7], the “number of microglia in the hippocampus (Iba1 positive cells)” value is given as “significantly reduces”. The “number of microglia in the hippocampus (Iba1 positive cells)” value with Down's model mice Dp16 [8] is recorded as “significantly reduces”. Also, the “binding to plasma proteins in blood” value in data set [9] (blood) was “mostly combined with plasma proteins”. The “absorption by oral administration” value in data set [9] (oral administration) is “absorbed rapidly and completely”. In the data set with Down's model mice Ts65Dn [10], the “Latency of 1st entrance to target, day 7” value is “reduces”; the “latency to search the platform (Escape latency), first 6 days of training” value is “significantly reduce”; the “number of times the mouse shuttled the area where the platform was located (Target crossing), day 7” value is “significantly increases”; the “spatial learning and memory deficits” value is listed as “significantly reverse”. Further, in the data set with Down's model mice Ts65Dn [11], the “Long term potentiation (LTP) of Schaffer collateral pathway from hippocampal CA3 to CA1” value is “significantly enhances”. Further, in data set [12], the “phagocytic function of fluorescent spheres by primary microglia” value was “significantly enhances”.
